Patent US8946482B2, “Salts of rasagiline and pharmaceutical preparations thereof” (Ratiopharm GmbH, priority 2009, dated 2015)
Read-outs that look alike come from different tables or passages of the source.

Details: for physical state of the salt: room temperature
Method: The term “liquid” means that the salt is in a state of matter where the particles are loose and can freely form a distinct surface at the boundaries of the bulk material. The liquid's shape is determined by the container it fills. The liquid can be of low or high viscosity, e.g. in the form of an oil or thick oil.
The liquid salt of the present invention can be prepared by mixing rasagiline and the acid and recovering the salt. […] Efficient mixing can be mediated by the use of a mixer mill. Alternatively, the rasagiline and the acid can be mixed in the presence of a solvent. In this case, either the rasagiline or the acid or the rasagiline and the acid can be suspended or dissolved in the same or different solvents before mixing. For example, first the rasagiline can be dissolved in the solvent and then the acid is added to this solution. Suitable solvents are, e.g., water, tetrahydrofurane, isopropyl alcohol, acetone, diisopropyl ether, and mixtures thereof. Preferred solvents are diisopropyl ether and acetone.
In the following table 1, the reference examples and examples of the present invention are summarized: […]

| Molecule | physical state of the salt | further results |
| --- | --- | --- |
| C#CCN[C@@H]1CCc2ccccc21 [Ex. 3, Rasagiline Propanoate] | – | physical state of the salt at 0° C. (0° C.): solid; physical state of the salt (listed as Rasagiline propionate): oil |
| C#CCNC1CCc2ccccc21.O=C1NS(=O)(=O)c2ccccc21 (stereo not shown) [Ref. Ex. 5, Rasagiline Saccharinate] | solid | – |
| C#CCN[C@@H]1CCc2ccccc21 [Ref. Ex. 7, Rasagiline Lauryl Sulphate] | solids | – |
| C#CCN[C@@H]1CCc2ccccc21 [Ref. Ex. 8, Rasagiline 4-dodecylbenzenesulfonate] | – | physical state of the salt (listed as rasagiline dodecyl benzene sulphonate): solids |
| C#CCN[C@@H]1CCc2ccccc21.CC(=O)O [Ref. Ex. 9, Rasagiline Acetate] | crystalline solid | – |
| Rasagiline Docusate [Ref. Ex. 6] | solid wax | – |
